Source: US7495022B2, “α,β-unsaturated hydroxamic acid derivatives and their use as histone deacetylase inhibitors” (SK Chemicals Co., Ltd., priority 2002, dated 2009)

Experiments:
Assay type in all cases: cell-based
A-549, lung cancer = experiment: In vitro cytotoxicity, MTT assay, A-549; conditions: A549, 96 h, A-549 human lung cancer cells, 4 days incubation
Experimental: (§1) Three human cancer cell lines (A-549, lung cancer; SK-BR-3, breast cancer; MKN-45, stomach cancer) were tested in MTT assay. These cell lines were grown in RPMI 1640 medium supplemented with penicillin-streptomycin (100 units/mL) and 10% heat-inactivated fetal bovine serum under standard culture condition (20% O2 and 5% CO2, 37° C.). Single-cell suspensions were prepared by trypsinization and pipette disaggregation. The number of cells for each cell line plated in 96-well microtiter plates was determined from the growth curve obtained in MTT assay. Test compounds were diluted from stock solution in DMSO into fresh medium to a 10× concentration. Cells were inoculated into each well in 180 μL of medium and eight different concentrations of 20 μL of test compounds were added to each well. The plates were then incubated for 4 days at 37° C., 5% CO2. After 4 days of culture, 0.1 mg (20 μL of 5 mg/mL) of MTT was added to each well. The plates were then incubated at 37° C. for 4 hours. After the plates were centrifuged at 1,000 rpm for 10 minutes, the supernatant was aspirated. 150 μL of DMSO was added to each well to solubilize formazan crystals. The plates were read immediately at 550 nm on Elisa reader (Dynatech, MR 5000).

MKN-45, stomach cancer = experiment: In vitro cytotoxicity, MTT assay, MKN-45; conditions: 96 h, MKN-45 human stomach cancer cells, 4 days incubation
Experimental: as §1

SK-BR-3, breast cancer = experiment: In vitro cytotoxicity, MTT assay, SK-BR-3; conditions: 96 h, SK-BR-3 human breast cancer cells, 4 days incubation
Experimental: as §1

Row | SMILES | IC50 (A-549, lung cancer) [µM] | IC50 (MKN-45, stomach cancer) [µM] | IC50 (SK-BR-3, breast cancer) [µM]
1 | O=C(C=Cc1ccc(CNC(=O)c2ccc(N3CCN(Cc4cccnc4)CC3)cc2)cc1)NO [Example 1, N-[4-(2-Hydroxycarbamoylvinyl)benzyl]-4-(4-pyridin-3-ylmethylpiperazin-1-yl)benzamide] | 12 | 38.6 | 3.19
2 | O=C(C=Cc1ccc(CNC(=O)c2ccc(N3CCN(Cc4ccccn4)CC3)cc2)cc1)NO [Example 2, N-[4-(2-Hydroxycarbamoylvinyl)benzyl]-4-(4-pyridin-2-ylmethylpiperazin-1-yl)benzamide] | 1.65 | 2.94 | 0.27
3 | O=C(C=Cc1ccc(CNC(=O)c2ccc(N3CCN(Cc4ccncc4)CC3)cc2)cc1)NO [Example 3, N-[4-(2-Hydroxycarbamoylvinyl)benzyl]-4-(4-pyridin-4-ylmethylpiperazin-1-yl)benzamide] | 3.02 | 56.1 | 1.72
4 | O=C(C=Cc1ccc(CNC(=O)c2ccccn2)cc1)NO [Example 4, N-[4-(2-Hydroxycarbamoylvinyl)benzyl]picolinamide] | 2.23 | 3.64 | 0.87
5 | O=C(C=Cc1ccc(CNC(=O)c2ccc(N3CCCC3)cc2)cc1)NO [Example 5, N-[4-(2-Hydroxycarbamoylvinyl)benzyl]-4-pyrrolidin-1-ylbenzamide] | 0.35 | 0.8 | 0.11
6 | CN(C)c1ccc(C(=O)NCc2ccc(C=CC(=O)NO)cc2)cc1 [Example 6, 4-Dimethylamino-N-[4-(2-hydroxycarbamoylvinyl)benzyl]benzamide] | 0.48 | 0.83 | 0.16
7 | O=C(C=Cc1ccc(CNC(=O)c2cccnc2)cc1)NO [Example 7, N-[4-(2-Hydroxycarbamoylvinyl)benzyl]nicotinamide] | 2.89 | 4.98 | 1.28
8 | O=C(C=Cc1ccc(CNC(=O)OCc2cccnc2)cc1)NO [Example 8, [4-(2-Hydroxycarbamoylvinyl)benzyl]carbamic acid pyridin-3-ylmethyl ester] | 2.61 | 3.34 | 1.12
9 | O=C(C=Cc1ccc(CS(=O)(=O)Nc2cccnc2)cc1)NO [Example 9, N-Hydroxy-3-[4-(pyridin-3-ylsulfamoylmethyl)phenyl]acrylamide] | 37 | 62 | 22.9
10 | O=C(C=Cc1ccc(CS(=O)(=O)c2ccccc2)cc1)NO [Example 10, 3-[4-(Benzenesulfonylmethyl)phenyl]-N-hydroxyacrylamide] | 11.1 | 8.34 | 4.57
